Consider 1 compound from publication PMC9090609 (RSC Advances, 2018).

As usually defined, the Km is the concentration of substrate that gives half-maximal velocity.

This experiment relates to E.c.-ALDC (acetolactate decarboxylase from Enterobacter cloacae). Put plainly: circular dichroism at […] nm, formation of. The experiment is classed as biochemical. The conditions noted are these: pH 6, 30 °C; racemic substrate 5.3-53.4 mM. (In general: Circular dichroism is the unequal absorption of left and right circularly polarised light.)

Consider `CC(=O)C(C)(O)C(=O)O` (racemic) [(±)-AL], for which the Km amounted to 12.2 mM.
